Measurements from patent publication US9365556B2, “3,5-diaminopyrazole kinase inhibitors” (Axikin Pharmaceuticals, Inc., priority 2012, dated 2016).

These compounds were tested against T1, kinase domain protein of RC kinase (Homo sapiens, UniProt Q56UN5) (assay: Enzymatic assay for kinase inhibitory activity (Crebtide substrate, LANCE read-out)). Conditions: compound at 1 μM.
T1 sequence (Q56UN5 1061-1324 limits assumed): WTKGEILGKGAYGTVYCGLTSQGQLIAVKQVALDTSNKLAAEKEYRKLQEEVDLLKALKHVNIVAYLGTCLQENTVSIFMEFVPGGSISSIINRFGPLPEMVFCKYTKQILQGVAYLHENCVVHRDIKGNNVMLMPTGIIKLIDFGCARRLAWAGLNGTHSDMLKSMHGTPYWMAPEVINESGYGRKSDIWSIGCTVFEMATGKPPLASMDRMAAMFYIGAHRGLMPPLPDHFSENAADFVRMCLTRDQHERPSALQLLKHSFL
Assay type: biochemical
Experimental: Solutions of a test compound, Crebtide (a substrate), a kinase, and ATP were prepared using 1×MAPK Buffer (50 mM HEPES, 1 mM EGTA, […], 10 mM MgCl2, 2 mM DTT, and 0.01% Tween 20).
To each well, the test compound (1 μL) was first added (in duplicate) to reach a final concentration of 1 μM or 1×IC50 of the compound. The kinase (5 μl) was then added to each well to reach a final concentration of […] for the kinase domain or […] for the full-length domain. Each plate included a positive and negative controls in duplicate wells. Crebtide (2.5 μL) was then added to each well in duplicate to reach a final concentration of 50 nM. If the full-length kinase was used, the plates were incubated for 45 min at room temperature before proceeding further. ATP (2.5 μL) was added to each well to reach a final concentration of 1 μM for the kinase domain and 3 μM for the full-length.
After the addition of ATP, the plates were incubated for 45 min at room temperature. During the incubation, an EDTA solution (40 mM) and anti-Crebtide ([…]) were prepared. Additionally, a detection buffer stock solution was diluted ten fold before use.
After the incubation, the anti-Crebtide (5 μL) and EDTA (5 μL) were added to each well to reach their final concentrations of […] and 10 mM, respectively. The plates were allowed to develop at room temperature for 45 min. The plates were then read at 665 nm and 615 nm using Perkin Elmer Lance machine.
The biological results of inhibition of the kinase domain protein of RC kinase are summarized in Tables 2 and 3, wherein A represents at least 50% inhibition of the RC kinase activity at 1 μM; B represents no greater than 50% but at least 20% inhibition of the RC kinase activity at 1 μM; C represents no greater than 20% but at least 5% inhibition of the RC kinase activity at 1 μM; and D represents no greater than 5% inhibition of the RC kinase activity at 1 μM.

Row | Compound | Activity (inhibition of the RC kinase activity) | inhibition at 1 µM [%]
1 | NC(=O)c1c(Nc2cccc(Cl)c2)n[nH]c1/N=C/c1ccc(-c2ccccn2)s1 [Compound B60] | D (no greater than 5% inhibition of the RC kinase activity at 1 μM) | 
2 | Cc1cc(/C=N/c2[nH]nc(Nc3cccc(Cl)c3)c2C(N)=O)cc(C)c1O [Compound B61, 3-((3-chlorophenyl)amino)-5-((4-hydroxy-3,5-dimethylbenzylidene)amino)-1H-pyrazole-4-carboxamide] |  | ≥ 50
3 | Cc1ncsc1/C=N/c1[nH]nc(Nc2cccc(Cl)c2)c1C(N)=O [Compound B62, 3-((3-chlorophenyl)amino)-5-(((4-methylthiazol-5-yl)methylene)amino)-1H-pyrazole-4-carboxamide] |  | ≥ 50
4 | NC(=O)c1c(Nc2cccc(Cl)c2)n[nH]c1/N=C/c1ccc(Oc2ccc(C(F)(F)F)cn2)cc1 [Compound B63] | B (no greater than 50% but at least 20% inhibition of the RC kinase activity at 1 μM) | 
5 | NC(=O)c1c(Nc2cccc(Cl)c2)n[nH]c1/N=C/c1ccc(Oc2ncccn2)cc1 [Compound B64, 3-((3-chlorophenyl)amino)-5-((4-(pyrimidin-2-yloxy)benzylidene)amino)-1H-pyrazole-4-carboxamide] |  | ≥ 50
6 | NC(=O)c1c(Nc2cccc(Cl)c2)n[nH]c1/N=C/c1ccccc1-c1cccs1 [Compound B65] |  | 20 to 50
7 | NC(=O)c1c(Nc2cccc(Cl)c2)n[nH]c1/N=C/c1ccc(N2CCCC2)nc1 [Compound B66] |  | 20 to 50
8 | Cn1nc(CSc2ccccc2)c(/C=N/c2[nH]nc(Nc3cccc(Cl)c3)c2C(N)=O)c1Cl [Compound B67] |  | 20 to 50
9 | NC(=O)c1c(Nc2cccc(Cl)c2)n[nH]c1/N=C/c1ccc(OC(F)F)c(O)c1 [Compound B68] |  | ≥ 50
10 | Cc1[nH]c2ccccc2c1/C=N/c1[nH]nc(Nc2cccc(Cl)c2)c1C(N)=O [Compound B69] | B (no greater than 50% but at least 20% inhibition of the RC kinase activity at 1 μM) | 
11 | CCc1nc(C)c(/C=N/c2[nH]nc(Nc3cccc(Cl)c3)c2C(N)=O)[nH]1 [Compound B70] | B (no greater than 50% but at least 20% inhibition of the RC kinase activity at 1 μM) | 
12 | NC(=O)c1c(Nc2cccc(Cl)c2)n[nH]c1/N=C/c1cccn1S(=O)(=O)c1ccccc1 [Compound B71, 3-((3-chlorophenyl)amino)-5-(((1-(phenylsulfonyl)-1H-pyrrol-2-yl)methylene)amino)-1H-pyrazole-4-carboxamide] |  | 20 to 50
13 | NC(=O)c1c(Nc2cccc(Cl)c2)n[nH]c1/N=C/c1nc(-c2ccccc2)[nH]c1Cl [Compound B72] | B (no greater than 50% but at least 20% inhibition of the RC kinase activity at 1 μM) | 
14 | NC(=O)c1c(Nc2cccc(Cl)c2)n[nH]c1/N=C/c1ccc(-c2ccc(Cl)cc2)o1 [Compound B73] | B (no greater than 50% but at least 20% inhibition of the RC kinase activity at 1 μM) | 
15 | COc1cc(/C=N/c2[nH]nc(Nc3cccc(Cl)c3)c2C(N)=O)cc(O)c1OC [Compound B74] |  | 5 to 20
16 | NC(=O)c1c(Nc2cccc(Cl)c2)n[nH]c1/N=C/c1ccc(Oc2nccc(C(F)(F)F)n2)cc1 [Compound B75] |  | 5 to 20
17 | NC(=O)c1c(Nc2cccc(Cl)c2)n[nH]c1/N=C/c1c[nH]c2c(F)c(F)c(F)c(F)c12 [Compound B76] | D (no greater than 5% inhibition of the RC kinase activity at 1 μM) | 
18 | NC(=O)c1c(Nc2cccc(Cl)c2)n[nH]c1/N=C/c1cccc(Oc2ncccn2)c1 [Compound B77] |  | 5 to 20
19 | NC(=O)c1c(Nc2cccc(Cl)c2)n[nH]c1/N=C/c1ncc(Cl)nc1Cl [Compound B78] |  | ≤ 5
20 | NC(=O)c1c(Nc2cccc(Cl)c2)n[nH]c1/N=C/c1cnccn1 [Compound B80] |  | ≤ 5
21 | Cn1nc(C(F)(F)F)c(/C=N/c2[nH]nc(Nc3cccc(Cl)c3)c2C(N)=O)c1Cl [Compound B81] |  | ≤ 5
22 | NC(=O)c1c(Nc2cccc(Cl)c2)n[nH]c1/N=C/c1c(F)cccc1Cl [Compound B82] | D (no greater than 5% inhibition of the RC kinase activity at 1 μM) | 

Row | Compound | Activity (inhibition of the RC kinase activity) | inhibition at 1 µM [%]
23 | NC(=O)c1c(Nc2cccc(Cl)c2)n[nH]c1/N=C/c1ccc(F)cc1O [Compound B83] |  | 5 to 20
24 | NC(=O)c1c(Nc2cccc(Cl)c2)n[nH]c1/N=C/c1ccc(CO)o1 [Compound B84, 3-((3-chlorophenyl)amino)-5-(((5-(hydroxymethyl)furan-2-yl)methylene)amino)-1H-pyrazole-4-carboxamide] |  | ≥ 50
25 | NC(=O)c1c(Nc2cccc(Cl)c2)n[nH]c1/N=C/c1cc(F)c(O)c(F)c1 [Compound B86, 3-((3-chlorophenyl)amino)-5-((3,5-difluoro-4-hydroxybenzylidene)amino)-1H-pyrazole-4-carboxamide] |  | ≥ 50
26 | N#Cc1cc(/C=N/c2[nH]nc(Nc3cccc(Cl)c3)c2C(N)=O)ccc1F [Compound B87] |  | ≤ 5
27 | NC(=O)c1c(Nc2cccc(Cl)c2)n[nH]c1/N=C/c1ncccc1F [Compound B88] |  | ≤ 5
28 | NC(=O)c1c(Nc2cccc(Cl)c2)n[nH]c1/N=C/c1ccc(OC(F)(F)F)c(F)c1 [Compound B90] | D (no greater than 5% inhibition of the RC kinase activity at 1 μM) | 
29 | Cn1c(Cl)c(/C=N/c2[nH]nc(Nc3cccc(Cl)c3)c2C(N)=O)c2ccccc21 [Compound B91] | D (no greater than 5% inhibition of the RC kinase activity at 1 μM) | 
30 | CS(=O)(=O)c1ccc(/C=N/c2[nH]nc(Nc3cccc(Cl)c3)c2C(N)=O)cc1 [Compound B92, 3-((3-chlorophenyl)amino)-5-((4-(methylsulfonyl)benzylidene)amino)-1H-pyrazole-4-carboxamide] |  | ≤ 5
31 | NC(=O)c1c(Nc2cccc(Cl)c2)n[nH]c1/N=C/c1ccc(Cl)cc1Cl [Compound B93] | D (no greater than 5% inhibition of the RC kinase activity at 1 μM) | 
32 | NC(=O)c1c(Nc2cccc(Cl)c2)n[nH]c1/N=C/c1ccc(Cl)cc1O [Compound B94] |  | 5 to 20
33 | NC(=O)c1c(Nc2cccc(Cl)c2)n[nH]c1/N=C/C1CCNCC1 [Compound B96] | D (no greater than 5% inhibition of the RC kinase activity at 1 μM) | 
34 | NC(=O)c1c(Nc2cccc(Cl)c2)n[nH]c1/N=C/c1ccc(-n2cnc3ccccc32)cc1 [Compound B97] | D (no greater than 5% inhibition of the RC kinase activity at 1 μM) | 
35 | NC(=O)c1c(Nc2cccc(Cl)c2)n[nH]c1/N=C/c1c[nH]nc1-c1ccc(F)cc1 [Compound B98] | C (no greater than 20% but at least 5% inhibition of the RC kinase activity at 1 μM) | 
36 | Cc1cc(/C=N/c2[nH]nc(Nc3cccc(Cl)c3)c2C#N)no1 [Compound B100] | C (no greater than 20% but at least 5% inhibition of the RC kinase activity at 1 μM) | 
37 | NC(=O)c1c(Nc2cccc(Cl)c2)n[nH]c1/N=C/c1ccc(N2CCOCC2)nc1 [Compound B101] |  | 5 to 20
38 | NC(=O)c1c(Nc2cccc(Cl)c2)n[nH]c1/N=C/c1c(O)cccc1Cl [Compound B103] |  | 5 to 20
39 | NC(=O)c1c(Nc2cccc(Cl)c2)n[nH]c1/N=C/c1cccc(OCCO)c1 [Compound B104, 3-((3-chlorophenyl)amino)-5-((3-(2-hydroxyethoxy)benzylidene)amino)-1H-pyrazole-4-carboxamide] |  | 20 to 50
40 | NC(=O)c1c(Nc2cccc(Cl)c2)n[nH]c1/N=C/c1cccnc1Cl [Compound B105] | C (no greater than 20% but at least 5% inhibition of the RC kinase activity at 1 μM) | 
41 | Cc1ccc(/C=N/c2[nH]nc(Nc3cccc(Cl)c3)c2C(N)=O)c(O)c1 [Compound B106] |  | ≤ 5
42 | NC(=O)c1c(Nc2cccc(Cl)c2)n[nH]c1/N=C/c1ccc(OCc2ccc(F)cc2)cc1 [Compound B107] |  | ≤ 5
43 | COc1cc(O)cc(OC)c1/C=N/c1[nH]nc(Nc2cccc(Cl)c2)c1C(N)=O [Compound B108] | B (no greater than 50% but at least 20% inhibition of the RC kinase activity at 1 μM) | 
44 | NC(=O)c1c(Nc2cccc(Cl)c2)n[nH]c1/N=C/c1ccc(OCCO)cc1 [Compound B109] |  | 5 to 20

Same assay, conditions: compound at 1 μM, 1 µM

Row | Compound | Activity (inhibition of the RC kinase activity)
45 | N#Cc1c(Nc2cccc(Cl)c2)n[nH]c1/N=C/c1cnc(N)s1 [Compound B99] | A (at least 50% inhibition of the RC kinase activity at 1 μM)
